Test results as given in the NIST ThermoML archive (doi:10.1021/acs.jced.7b00363).

Assays:
[1] = wn = mass fraction of the nth substance listed; settings: Surface laser light scattering (SLLS); for viscosity: Liquid
[2] = Surface laser light scattering (SLLS); for viscosity: Liquid

CCCCCCCCCCCCCCCCCCCCCCCCCCCC [octacosane] + CCCCCCCCCCCC
[1]
Settings | surface tension liquid-gas [mN/m] | viscosity [mPa·s]
373.15 K, w2 = 0.156 | 21.71 | 1.944
398.15 K, w2 = 0.156 | 19.8 | 1.412
423.15 K, w2 = 0.156 | 18.5 | 1.089
448.15 K, w2 = 0.155 | 17.07 | 0.8604
473.15 K, w2 = 0.155 | 15.59 | 0.6912
498.15 K, w2 = 0.154 | 14.15 | 0.5671
523.15 K, w2 = 0.152 | 12.84 | 0.4787
548.15 K, w2 = 0.15 | 11.56 | 0.4075
573.15 K, w2 = 0.148 | 10.3 | 0.3445

CCCCCCCCCCCCCCCCCCCCCCCCCCCC [octacosane]
[2]
Settings | surface tension liquid-gas [mN/m] | viscosity [mPa·s]
398.15 K | 21.33 | 1.814
423.15 K | 19.53 | 1.361
448.15 K | 17.78 | 1.025
473.15 K | 16.57 | 0.8318
498.15 K | 15.38 | 0.6847
523.15 K | 14.18 | 0.5675
548.15 K | 12.86 | 0.4753
573.15 K | 11.51 | 0.3995

CCCCCCCCCCCC [dodecane]
[2]
Settings | surface tension liquid-gas [mN/m] | viscosity [mPa·s]
323.15 K | 21.64 | 0.9225
348.15 K | 19.91 | 0.6763
373.15 K | 18.19 | 0.507
398.15 K | 16.22 | 0.4003
423.15 K | 14.33 | 0.3223
448.15 K | 12.38 | 0.2595
473.15 K | 10.67 | 0.2156
498.15 K | 8.95 | 0.1821
523.15 K | 7.25 | 0.1532
548.15 K | 5.64 | 0.1277
573.15 K | 4.14 | 0.1051
